PubChem BioAssay AID256 (DTP/NCI, 2004)
Where “and” joins values, the source holds several entries; their conditions need not be identical. Identical values can stand only once. Toxic doses and inconclusive results are not listed. How the source made its calls: active means survival T/C of 150% or more; inactive means T/C below 125% in these data.

Test system: CD2F1 mice, L1210 leukemia ip, survival T/C
Test: NCI In Vivo Anticancer Drug Screen. Data for tumor model L1210 Leukemia (intraperitoneal) in CD2F1 (CDF1) mice
Conditions: higher = longer survival
In short: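 Implant tumor; dose compound or vehicle; measure endpoint in both groups; report treated divided by control.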

[1] = endpoint: mean survival time, dose: 50.0 mg/kg/injection, schedule: Q01DX009 (ip), vehicle: saline with Tween-80
[2] = endpoint: mean survival time, dose: 100.0 mg/kg/injection, schedule: Q01DX009 (ip), vehicle: saline with Tween-80
[3] = endpoint: mean survival time, dose: 200.0 mg/kg/injection, schedule: Q01DX001 (ip), vehicle: saline with Tween-80
[4] = endpoint: mean survival time, dose: 200.0 mg/kg/injection, schedule: Q01DX009 (ip), vehicle: saline with Tween-80
[5] = endpoint: mean survival time, dose: 400.0 mg/kg/injection, schedule: Q01DX009 (ip), vehicle: saline with Tween-80
[6] = endpoint: mean survival time, dose: 50.0 mg/kg/injection, schedule: Q01DX009 (ip), vehicle: Klucel (hydroxypropylcellulose) (HPC)
[7] = endpoint: mean survival time, dose: 100.0 mg/kg/injection, schedule: Q01DX009 (ip), vehicle: Klucel (hydroxypropylcellulose) (HPC)
[8] = endpoint: mean survival time, dose: 200.0 mg/kg/injection, schedule: Q01DX009 (ip), vehicle: Klucel (hydroxypropylcellulose) (HPC)
[9] = endpoint: mean survival time, dose: 100.0 mg/kg/injection, schedule: Q04DX003 (ip), vehicle: saline with Tween-80
[10] = endpoint: mean survival time, dose: 200.0 mg/kg/injection, schedule: Q04DX003 (ip), vehicle: saline with Tween-80
[11] = endpoint: mean survival time, dose: 400.0 mg/kg/injection, schedule: Q04DX003 (ip), vehicle: saline with Tween-80
[12] = endpoint: mean survival time, dose: 25.0 mg/kg/injection, schedule: Q04DX003 (ip), vehicle: saline with Tween-80
[13] = endpoint: mean survival time, dose: 50.0 mg/kg/injection, schedule: Q04DX003 (ip), vehicle: saline with Tween-80
[14] = endpoint: mean survival time, dose: 25.0 mg/kg/injection, schedule: Q01DX001 (ip), vehicle: saline with Tween-80

Measured: T/C

[O-][n+]1ccccc1C[P+](c1ccccc1)(c1ccccc1)c1ccccc1
inactive: endpoint: mean survival time, dose: 12.5 mg/kg/injection, schedule: Q01DX009 (ip), vehicle: water 101 % of control | endpoint: mean survival time, dose: 25.0 mg/kg/injection, schedule: Q01DX009 (ip), vehicle: water 100 % of control | endpoint: mean survival time, dose: 50.0 mg/kg/injection, schedule: Q01DX009 (ip), vehicle: water 105 % of control | endpoint: mean survival time, dose: 100.0 mg/kg/injection, schedule: Q01DX009 (ip), vehicle: water 96 % of control

ClCc1ccc(Cl)c(Cl)c1Cl
inactive: endpoint: mean survival time, dose: 25.0 mg/kg/injection, schedule: Q01DX009 (ip), vehicle: saline with Tween-80 100 % of control | [1] 100 % of control | [2] 100 % of control

CCC(/C=C/C1OC(=O)C=CC1C)=C\C(C)C/C=C/C(C)=C/C(C)C(=O)C(C)C(O)C(C)C/C(C)=C/C(=O)O (configuration not stated)
inactive: endpoint: median survival time, dose: 6.25 micrograms/kg/injection, schedule: Q01DX005 (ip), vehicle: saline + alcohol 120 % of control | endpoint: median survival time, dose: 12.5 micrograms/kg/injection, schedule: Q01DX005 (ip), vehicle: saline + alcohol 119 % of control | endpoint: median survival time, dose: 12.5 micrograms/kg/injection, schedule: Q01DX009 (ip), vehicle: saline + alcohol 101 % of control | endpoint: median survival time, dose: 25.0 micrograms/kg/injection, schedule: Q01DX005 (ip), vehicle: saline + alcohol 120 % of control | endpoint: median survival time, dose: 25.0 micrograms/kg/injection, schedule: Q01DX009 (ip), vehicle: saline + alcohol 101 % of control | endpoint: median survival time, dose: 50.0 micrograms/kg/injection, schedule: Q01DX009 (ip), vehicle: saline + alcohol 115 % of control

ClC1C(c2ccccc2)=C(c2ccccc2)c2ccccc21 (configuration not stated)
inactive: endpoint: mean survival time, dose: 100.0 mg/kg/injection, schedule: Q01DX001 (ip), vehicle: saline with Tween-80 87 % of control | [3] 91 % of control | [4] 101 % of control | [5] 98 % of control

COC(=O)C1(C)CSCCC1=O (configuration not stated)
inactive: endpoint: mean survival time, dose: 100.0 mg/kg/injection, schedule: Q04DX003 (ip), vehicle: saline 107 % of control | endpoint: mean survival time, dose: 200.0 mg/kg/injection, schedule: Q04DX003 (ip), vehicle: saline 96 % of control | endpoint: mean survival time, dose: 400.0 mg/kg/injection, schedule: Q04DX003 (ip), vehicle: saline 96 % of control

Cc1ccc(NC(=O)Oc2ccccc2F)cc1C
inactive: [1] 100 % of control | [2] 87 % of control | [4] 104 % of control

N#CCCN(C(=S)Nc1cccc(C(F)(F)F)c1)C1CCCCC1
inactive: endpoint: mean survival time, dose: 12.5 mg/kg/injection, schedule: Q01DX009 (ip), vehicle: Klucel (hydroxypropylcellulose) (HPC) 92 % of control | endpoint: mean survival time, dose: 25.0 mg/kg/injection, schedule: Q01DX009 (ip), vehicle: Klucel (hydroxypropylcellulose) (HPC) 97 % of control | [6] 98 % of control | [7] 98 % of control | [8] 98 % of control | endpoint: mean survival time, dose: 400.0 mg/kg/injection, schedule: Q01DX009 (ip), vehicle: Klucel (hydroxypropylcellulose) (HPC) 101 % of control | endpoint: median survival time, dose: 100.0 mg/kg/injection, schedule: Q01DX009 (ip), vehicle: Klucel (hydroxypropylcellulose) (HPC) 101 % of control | endpoint: median survival time, dose: 200.0 mg/kg/injection, schedule: Q01DX009 (ip), vehicle: Klucel (hydroxypropylcellulose) (HPC) 103 % of control | endpoint: median survival time, dose: 400.0 mg/kg/injection, schedule: Q01DX009 (ip), vehicle: Klucel (hydroxypropylcellulose) (HPC) 104 % of control

CC(=O)OC(c1ccccc1)C(Cl)(Cl)Cl (configuration not stated)
inactive: [9] 100 % of control | [10] 105 % of control | [11] 105 % of control

CN(C)C(=S)Oc1ccc(S(=O)(=O)F)cc1F
inactive: endpoint: mean survival time, dose: 100.0 mg/kg/injection, schedule: Q04DX002 (ip), vehicle: saline with Tween-80 93 % of control | endpoint: mean survival time, dose: 200.0 mg/kg/injection, schedule: Q04DX002 (ip), vehicle: saline with Tween-80 93 % of control | endpoint: mean survival time, dose: 400.0 mg/kg/injection, schedule: Q04DX002 (ip), vehicle: saline with Tween-80 104 % of control

O=[N+]([O-])c1ccc(F)c(Cl)c1
inactive: endpoint: mean survival time, dose: 25.0 mg/kg/injection, schedule: Q01DX009 (ip), vehicle: other 96 % of control | endpoint: mean survival time, dose: 50.0 mg/kg/injection, schedule: Q01DX009 (ip), vehicle: other 100 % of control | endpoint: mean survival time, dose: 100.0 mg/kg/injection, schedule: Q01DX009 (ip), vehicle: other 96 % of control

COc1cccc2c1C(=O)c1c(O)c3c(c(O)c1C2=O)CC(O)(C(C)=O)CC3OC1CC(N)C(O)C(C)O1 (configuration not stated)
inactive: endpoint: mean survival time, dose: 0.25 mg/kg/injection, schedule: Q01DX001 (ip), vehicle: saline 112 % of control | endpoint: mean survival time, dose: 0.5 mg/kg/injection, schedule: Q01DX001 (ip), vehicle: saline 109 % of control | endpoint: mean survival time, dose: 0.63 mg/kg/injection, schedule: Q01DX009 (ip), vehicle: water 105 % of control | endpoint: mean survival time, dose: 1.0 mg/kg/injection, schedule: Q01DX001 (ip), vehicle: saline 115 % of control | endpoint: mean survival time, dose: 1.25 mg/kg/injection, schedule: Q01DX009 (ip), vehicle: water 108 % of control | endpoint: mean survival time, dose: 2.0 mg/kg/injection, schedule: Q01DX001 (ip), vehicle: saline 121 % of control | endpoint: mean survival time, dose: 2.5 mg/kg/injection, schedule: Q01DX009 (ip), vehicle: water 115 % of control and 105 % of control | endpoint: mean survival time, dose: 5.0 mg/kg/injection, schedule: Q01DX009 (ip), vehicle: water 105 % of control | endpoint: mean survival time, dose: 10.0 mg/kg/injection, schedule: Q01DX009 (ip), vehicle: water 117 % of control | endpoint: mean survival time, dose: 20.0 mg/kg/injection, schedule: Q01DX009 (ip), vehicle: water 117 % of control and 105 % of control | endpoint: mean survival time, dose: 40.0 mg/kg/injection, schedule: Q01DX009 (ip), vehicle: water 117 % of control | endpoint: mean survival time, dose: 80.0 mg/kg/injection, schedule: Q01DX009 (ip), vehicle: water 105 % of control

C/C=C/C(Cc1ccc2ccccc2c1)(C(=O)OCC)C(=O)OCC
inactive: [6] 91 % of control | [7] 88 % of control | [8] 94 % of control

O=C1NC2(c3ccccc3)NC(=O)NC2(c2ccccc2)N1 (configuration not stated)
inactive: [2] 98 % of control | [9] 101 % of control | [4] 98 % of control | [10] 97 % of control | [5] 104 % of control | [11] 95 % of control

Cc1cc(CC(O)(C(F)(F)Cl)C(F)(F)Cl)cc(C)n1
inactive: [9] 95 % of control | [10] 92 % of control | [11] 90 % of control

S=C1SCCN1c1ccccc1
inactive: [2] 96 % of control | [9] 103 % of control | [4] 96 % of control | [10] 101 % of control | [5] 95 % of control | [11] 100 % of control

CCN(C(=O)Nc1ccc(Cl)cc1)c1ccccc1
inactive: [2] 97 % of control | [4] 100 % of control | [5] 96 % of control

CC1CC[N-]CC1.CC1CC[N-]CC1.CC1CC[N-]CC1.CC1CC[N-]CC1.[Cl][Rh][Cl]
inactive: endpoint: mean survival time, dose: 50.0 mg/kg/injection, schedule: Q01DX009 (ip), vehicle: saline sonified 97 % of control | endpoint: mean survival time, dose: 100.0 mg/kg/injection, schedule: Q01DX009 (ip), vehicle: saline sonified 97 % of control | [9] 111 % of control | [10] 86 % of control

COc1ccc(CCNC2C3CC4CC(C3)CC2C4)cc1OC (configuration not stated)
inactive: [12] 112 % of control | [13] 101 % of control | [9] 101 % of control

O.O.[Cl][Pt+2][Cl].[NH-]CC1(C[NH-])CCCCC1
inactive: endpoint: median survival time, dose: 3.12 mg/kg/injection, schedule: Q04DX003 (ip), vehicle: saline 121 % of control

CC(C)(C)NC(=O)CCC(CC(=O)NC(C)(C)C)C1([N+](=O)[O-])CCCCC1 (configuration not stated)
inactive: [2] 92 % of control | [4] 86 % of control

CCCCCCCCCC[N+]1(C)CCC[N+](C)(CCCCCCCCCC)CC1 (configuration not stated)
inactive: endpoint: mean survival time, dose: 12.5 mg/kg/injection, schedule: Q01DX001 (ip), vehicle: saline with Tween-80 95 % of control | [14] 105 % of control

CC(C)CNC(=O)Nc1ccccc1C(F)(F)F
inactive: [2] 96 % of control | [4] 98 % of control | [5] 91 % of control

O=S(=O)(c1ccc(Cl)cc1)c1ccc(Cl)cc1
inactive: endpoint: mean survival time, dose: 100.0 mg/kg/injection, schedule: Q01DX001 (ip), vehicle: Klucel (hydroxypropylcellulose) (HPC) 93 % of control | endpoint: mean survival time, dose: 200.0 mg/kg/injection, schedule: Q01DX001 (ip), vehicle: Klucel (hydroxypropylcellulose) (HPC) 90 % of control | endpoint: mean survival time, dose: 400.0 mg/kg/injection, schedule: Q01DX001 (ip), vehicle: Klucel (hydroxypropylcellulose) (HPC) 96 % of control

CCC(=O)c1ccccc1NC(C)=O
inactive: [10] 95 % of control | [11] 97 % of control

COc1ccc(/C=C/C(CC(NO)c2ccc(OC)cc2)=N/O)cc1 (configuration not stated)
inactive: endpoint: mean survival time, dose: 12.5 mg/kg/injection, schedule: Q04DX003 (ip), vehicle: saline with Tween-80 101 % of control | [14] 103 % of control | [12] 101 % of control | endpoint: mean survival time, dose: 50.0 mg/kg/injection, schedule: Q01DX001 (ip), vehicle: saline with Tween-80 104 % of control | [13] 102 % of control | [9] 95 % of control | [3] 97 % of control | [10] 98 % of control
